The target of one assay is T1, human recombinant HDAC6 (Homo sapiens, UniProt Q9UBN7).
T1 construct: purchased Calbiochem 382180
T1 sequence (Q9UBN7 1-1215): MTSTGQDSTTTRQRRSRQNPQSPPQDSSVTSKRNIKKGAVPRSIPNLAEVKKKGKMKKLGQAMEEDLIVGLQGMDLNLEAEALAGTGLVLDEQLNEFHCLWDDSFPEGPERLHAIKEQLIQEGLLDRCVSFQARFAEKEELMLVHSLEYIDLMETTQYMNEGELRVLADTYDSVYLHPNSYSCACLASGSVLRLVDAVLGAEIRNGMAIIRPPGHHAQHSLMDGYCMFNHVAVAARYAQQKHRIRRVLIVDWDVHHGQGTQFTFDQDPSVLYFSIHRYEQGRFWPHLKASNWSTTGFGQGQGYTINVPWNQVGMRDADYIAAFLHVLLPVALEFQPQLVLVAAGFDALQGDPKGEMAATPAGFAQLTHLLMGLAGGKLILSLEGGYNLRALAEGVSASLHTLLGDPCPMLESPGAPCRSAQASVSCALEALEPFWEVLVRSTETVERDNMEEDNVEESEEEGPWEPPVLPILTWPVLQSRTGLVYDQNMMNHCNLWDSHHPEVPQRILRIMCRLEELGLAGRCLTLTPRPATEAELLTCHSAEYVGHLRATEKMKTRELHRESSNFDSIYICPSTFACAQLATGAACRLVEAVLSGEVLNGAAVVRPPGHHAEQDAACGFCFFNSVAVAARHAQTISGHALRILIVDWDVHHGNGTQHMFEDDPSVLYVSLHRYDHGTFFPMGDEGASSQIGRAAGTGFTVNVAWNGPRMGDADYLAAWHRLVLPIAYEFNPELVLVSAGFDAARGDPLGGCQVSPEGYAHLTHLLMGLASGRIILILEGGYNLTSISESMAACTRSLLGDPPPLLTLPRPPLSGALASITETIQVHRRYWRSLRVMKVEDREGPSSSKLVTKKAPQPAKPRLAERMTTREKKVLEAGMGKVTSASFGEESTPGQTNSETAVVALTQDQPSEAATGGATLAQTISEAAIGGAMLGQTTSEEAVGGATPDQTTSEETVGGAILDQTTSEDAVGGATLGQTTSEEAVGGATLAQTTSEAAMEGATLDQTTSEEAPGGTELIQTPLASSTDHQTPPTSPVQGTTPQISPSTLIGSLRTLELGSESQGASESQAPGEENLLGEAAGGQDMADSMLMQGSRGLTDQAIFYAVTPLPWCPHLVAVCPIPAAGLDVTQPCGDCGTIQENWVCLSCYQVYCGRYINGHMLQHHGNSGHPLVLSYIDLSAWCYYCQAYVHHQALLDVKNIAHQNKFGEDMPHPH
The assay can be described thus: HDAC6 enzyme activity inhibition assay (HDAC Fluorimetric Drug Discovery Kit). The format is biochemical. To be noted: for HDAC6 selectivity (fold): HDAC6 over HDAC1; for IC50: human recombinant HDAC6, same protocol as HDAC1, read-out: HDAC6. In a few lines:
(§1)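 Human recombinant HDAC1 or HDAC6 (0.3 μg) reacted with 10 μM Fluor de Lys-SIRT1 substrate and 5-fold compound dilutions for 60 min at 30 °C. Developer II added for 30 min, fluorescence read at Ex 360/Em 460; IC50 calculated from the readings.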

A further assay concerns the target T2, human recombinant HDAC1 (Homo sapiens, UniProt Q13547).
T2 construct: purchased Enzo Life Science BML-SE456
The assay can be described thus: HDAC1 enzyme activity inhibition assay (HDAC Fluorimetric Drug Discovery Kit). The format is biochemical. The note with it: human recombinant HDAC1, Fluor de Lys substrate 10 μM, 30° C. 60 minutes. In a few lines: as §1

T2 sequence (Q13547 whole entry): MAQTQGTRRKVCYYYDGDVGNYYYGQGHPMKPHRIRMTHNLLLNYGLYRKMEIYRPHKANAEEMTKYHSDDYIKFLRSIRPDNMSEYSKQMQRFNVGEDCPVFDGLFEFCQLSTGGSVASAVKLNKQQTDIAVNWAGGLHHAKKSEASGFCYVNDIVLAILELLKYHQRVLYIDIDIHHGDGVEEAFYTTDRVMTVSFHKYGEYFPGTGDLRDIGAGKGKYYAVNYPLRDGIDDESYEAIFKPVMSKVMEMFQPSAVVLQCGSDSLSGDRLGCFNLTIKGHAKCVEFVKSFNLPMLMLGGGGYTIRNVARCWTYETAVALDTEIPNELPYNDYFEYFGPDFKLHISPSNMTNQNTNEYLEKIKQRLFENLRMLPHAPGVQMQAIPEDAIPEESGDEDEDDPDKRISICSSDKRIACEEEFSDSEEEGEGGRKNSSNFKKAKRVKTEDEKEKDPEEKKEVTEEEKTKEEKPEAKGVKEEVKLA

On to `O=C(N1CCOCC1)N(Cc1ccc(-c2nnc(C(F)F)o2)cc1F)c1ccc(F)cc1F` [Compound 21858, N-(4-(5-(difluoromethyl)-1,3,4-oxadiazol-2-yl)-2-fluorobenzyl)-N-(2,4-difluorophenyl)morpholine-4-carboxamide], for which, at human recombinant HDAC6, the “HDAC6 selectivity (fold)” value amounted to 966 fold and the IC50 stood at 38 nM. On human recombinant HDAC1, the IC50 is 37.1 µM.
The like results for `O=C(N1CCOCC1)N(Cc1ccc(-c2nnc(C(F)(F)F)o2)cc1F)c1ccc(F)cc1F` [Compound 21859, N-(2,4-difluorophenyl)-N-(2-fluoro-4-(5-(trifluoromethyl)-1,3,4-oxadiazol-2-yl)benzyl)morpholine-4-carboxamide] were, in that order, 177 fold, 133 nM and 23.5 µM.
The like results for `CCN1CCN(C(=O)N(Cc2ccc(-c3nnc(C(F)(F)F)o3)cc2)c2cccc(Cl)c2)CC1` [Compound 21860, N-(3-Chlorophenyl)-4-ethyl-N-(4-(5-(trifluoromethyl)-1,3,4-oxadiazol-2-yl)benzyl)piperazine-1-carboxamide] were, in that order, 82 fold, 220 nM and 18 µM.
The like results for `CCN1CCN(C(=O)N(Cc2ccc(-c3nnc(C(F)(F)F)o3)cc2F)c2cccc(Cl)c2)CC1` [Compound 21861, N-(3-Chlorophenyl)-4-ethyl-N-(2-fluoro-4-(5-(trifluoromethyl)-1,3,4-oxadiazol-2-yl)benzyl)piperazine-1-carboxamide] were, in that order, 40 fold, 343 nM and 13.7 µM.
On to `CCN1CCN(C(=O)N(Cc2ccc(-c3nnc(C(F)(F)F)o3)cc2)c2ccc(Cl)cc2)CC1` [Compound 21862, N-(4-Chlorophenyl)-4-ethyl-N-(4-(5-(trifluoromethyl)-1,3,4-oxadiazol-2-yl)benzyl)piperazine-1-carboxamide], for which the “HDAC6 selectivity (fold)” value at human recombinant HDAC6 is on record as 71 fold. The IC50 is 472 nM on human recombinant HDAC6 and 33.7 µM on human recombinant HDAC1.
The like results for `CCN1CCN(C(=O)N(Cc2ccc(-c3nnc(C(F)(F)F)o3)cc2F)c2ccc(Cl)cc2)CC1` [Compound 21863, N-(4-Chlorophenyl)-4-ethyl-N-(2-fluoro-4-(5-(trifluoromethyl)-1,3,4-oxadiazol-2-yl)benzyl)piperazine-1-carboxamide] were, in that order, 65 fold, 400 nM and 25.8 µM.
Regarding `CCN1CCN(C(=O)N(Cc2ccc(-c3nnc(C(F)(F)F)o3)cn2)c2ccc(Cl)cc2)CC1` [Compound 21864, N-(4-Chlorophenyl)-4-ethyl-N-((5-(5-(trifluoromethyl)-1,3,4-oxadiazol-2-yl)pyridin-2-yl)methyl)piperazine-1-carboxamide], on human recombinant HDAC6, the “HDAC6 selectivity (fold)” value is listed as 190 fold and the IC50 is 152 nM. Moreover, at human recombinant HDAC1, the IC50 came out at 28.8 µM.
On the same counts, the results for `CCN1CCN(C(=O)N(Cc2ccc(-c3nnc(C(F)(F)F)o3)cc2)c2cccc(F)c2)CC1` [Compound 21865, 4-Ethyl-N-(3-fluorophenyl)-N-(4-(5-(trifluoromethyl)-1,3,4-oxadiazol-2-yl)benzyl)piperazine-1-carboxamide] are 174 fold, 96 nM and 16.8 µM.
With `CCN1CCN(C(=O)N(Cc2ccc(-c3nnc(C(F)(F)F)o3)cc2F)c2cccc(F)c2)CC1` [Compound 21866, 4-Ethyl-N-(2-fluoro-4-(5-(trifluoromethyl)-1,3,4-oxadiazol-2-yl)benzyl)-N-(3-fluorophenyl)piperazine-1-carboxamide], at human recombinant HDAC6, the “HDAC6 selectivity (fold)” value worked out at 174 fold and the IC50 was 137 nM. Further, the IC50 on human recombinant HDAC1 stood at 23.9 µM.

The record behind these values is patent publication US10717716B2, “1,3,4-oxadiazole derivative compounds as histone deacetylase 6 inhibitor, and the pharmaceutical composition comprising the same” (Chong Kun Dang Pharmaceutical Corp., priority 2015, dated 2020).
